Experiments:
[1] = tested on: primary human tubular epithelial cell (HTEC); assay: SA β Gal staining at pH6 in primary tubular epithelial cultures as a measure of senescence, with or without H2O2; type: cell-based; conditions: 10 ng/ml tacrolimus (FK); cells challenged with oxidant H2O2 (75 μM); FIG. 3
Procedure: HTEC culture. Primary HTEC cultures were grown at 37° C. 5% CO2 in DMEM/Glutamax-1/+ pyridoxine medium (Life technologies) plus […] ml^−1 Penstrep. Cells were stained for SA β Gal activity as described in Joosten et al 2003.
Building upon the rodent observations, the inventor has established a primary human tubular epithelial cell (HTEC) in vitro system to model and evaluate premature human renal senescence. […] This is shown in FIG. 3, which illustrates SA β Gal staining at pH6 in primary tubular epithelial cultures as a measure of senescence.
Cultures were grown ±100 ng/ml cyclosporin (cyc) or 10 ng/ml tacrolimus (FK) and evaluated with or without oxidising 75 μM H2O2 treatment.
This has profound implications for transplant outcome and current clinical practice.

[2] = patients treated after cadaveric renal transplantation; result not always reproducible; cited from earlier work

Compound | effect on oxidant stress, judged by SA β Gal staining at pH6 [1] | 1 and 4 year graft survival rate [2] | first acute rejection episodes [2]
C=CC[C@@H]1/C=C(\C)C[C@H](C)C[C@H](OC)[C@H]2O[C@@](O)(C(=O)C(=O)N3CCCC[C@H]3C(=O)O[C@H](/C(C)=C/[C@@H]3CC[C@@H](O)[C@H](OC)C3)[C@H](C)[C@@H](O)CC1=O)[C@H](C)C[C@@H]2OC [tacrolimus] | protect against the effects of oxidant stress | – | –
superoxide dismutase | – | significantly improved | reduction

Reference: patent US20050158721A1, “Tissue rejection” (priority 2002, published 2005)
